# From DBAASP
# Where “and” joins values, the source holds several entries; their conditions need not be identical. Equal values may be shown once.
# Columns and labels:
# Assay in all cases: ≥ marks a high value that may be exact or a test limit, other limits are often not marked, values filed in µg/mL are converted to µM
# [1] = tested on: Bacillus subtilis CGMCC 1.3376
# [2] = tested on: Pseudomonas aeruginosa ATCC 27853
# [3] = tested on: Staphylococcus aureus NCTC 8325
# [4] = tested on: Clostridium tertium ATCC 19465
# [5] = tested on: Prevotella melaninogenica
# [6] = tested on: Cutibacterium acnes
# [7] = tested on: Pseudomonas aeruginosa CGMCC 1.2421
# [8] = tested on: Salmonella enterica subsp. enterica serovar Typhimurium LT2
# [9] = tested on: Enterobacter cloacae HNTCC 53001
# [10] = tested on: Staphylococcus aureus T58/7
# [11] = tested on: Candida albicans ATCC 90028
# [12] = tested on: Peptostreptococcus anaerobius
# [13] = tested on: Staphylococcus aureus T7/5
# [14] = tested on: Staphylococcus aureus T27/9
# [15] = tested on: Fusobacterium varium ATCC 27725
# [16] = tested on: Peptoniphilus asaccharolyticus ATCC 29743
# [17] = tested on: Bacteroides fragilis ATCC 25285
# [18] = tested on: Staphylococcus epidermidis CGMCC 1.4260
# [19] = tested on: Proteus mirabilis ATCC 25933
# [20] = tested on: Staphylococcus aureus CGMCC 1.8721
# [21] = tested on: Staphylococcus epidermidis RP62A
# [22] = tested on: Clostridium septicum
# [23] = tested on: Fusobacterium nucleatum
# [24] = tested on: Enterococcus faecalis ATCC 29212
# [25] = tested on: Bacteroides fragilis
# [26] = tested on: Cutibacterium acnes ATCC 11828
# [27] = tested on: Escherichia coli CGMCC 1.8732
# [28] = tested on: Batrachochytrium dendrobatidis
# [29] = tested on: Klebsiella pneumoniae KK3 9904
# [30] = tested on: Acinetobacter baumannii
# [31] = tested on: Klebsiella pneumoniae CGMCC 1.1736
# [32] = tested on: Clostridium perfringens ATCC 10543
# [33] = tested on: Escherichia coli ATCC 25922
# [34] = tested on: Enterococcus faecalis
# [35] = tested on: Staphylococcus aureus
# [36] = tested on: Streptococcus sobrinus ATCC 33478
# [37] = tested on: Streptococcus sanguinis NY101
# [38] = tested on: Escherichia coli W3110
# [39] = tested on: Streptococcus mutans UA159
# [40] = tested on: Pseudomonas aeruginosa PAK
# [41] = tested on: Staphylococcus aureus 930918-3
# [42] = tested on: Staphylococcus aureus ATCC 33591
# [43] = tested on: Pseudomonas aeruginosa MR3007
# [44] = tested on: Acinetobacter baumannii ATCC 19606
# [45] = tested on: Bordetella bronchiseptica CUN 11844-99
# [46] = tested on: Yersinia pestis KIM pYV
# [47] = tested on: Staphylococcus aureus SA113
# [48] = tested on: Escherichia coli ATCC 23716
# [49] = tested on: Pseudomonas aeruginosa CUN 4158-02
# [50] = tested on: Staphylococcus aureus ATCC 43300
# [51] = tested on: Brucella abortus 9.49 (per-)
smiles,measurement,setting,value
CC[C@H](C)[C@H](NC(=O)[C@H](C)N)C(=O)NCC(=O)N[C@@H](CO)C(=O)N[C@H](C(=O)N[C@@H](CC(C)C)C(=O)NCC(=O)N[C@@H](C)C(=O)N[C@@H](CC(C)C)C(=O)N[C@@H](C)C(=O)N[C@@H](CCCCN)C(=O)NCC(=O)N[C@@H](CC(C)C)C(=O)N1CCC[C@H]1C(=O)N[C@H](C(=O)N[C@@H](CC(C)C)C(=O)N[C@H](C(=O)N[C@@H](CO)C(=O)N[C@@H](Cc1c[nH]c2ccccc12)C(=O)N[C@H](C(=O)N[C@@H](CCCCN)C(=O)N[C@@H](CC(N)=O)C(=O)N[C@@H](CCCN=C(N)N)C(N)=O)[C@@H](C)CC)[C@@H](C)CC)[C@@H](C)O)[C@@H](C)CC [AIGSILGALAKGLPTLISWIKNR],MIC,[1],3.13 µM
same,MIC,[2],25 µM
same,MIC,[3],3.5 µM and 6 µM
same,MIC,[4],12.5 µM
same,MIC,[5],3 µM
same,MIC,[6],25 µM
same,MIC,[7],12.5 µM
same,MIC,[8],≥ 50 µM
same,MIC,[9],12.5 µM
same,MIC,[10],20 µM
same,MIC,[11],19 µM and 12.5 µM
same,MIC,[12],25 µM
same,MIC,[13],2.5 µM
same,MIC,[14],5 µM
same,MIC,[15],≥ 50 µM
same,MIC,[16],≥ 50 µM
same,MIC,[17],≥ 50 µM
same,MIC,[18],3.13 µM
same,MIC,[19],≥ 100 µM
same,MIC,[20],6.25 µM
same,MIC,[21],3 µM
same,MIC,[22],12.5 µM
same,MIC,[23],≥ 50 µM
same,MIC,[24],6 µM
same,MIC,[25],≥ 50 µM
same,MIC,[26],12.5 µM
same,MIC,[27],25 µM
same,MIC,[28],25 µM
same,MIC,[29],≥ 50 µM
same,MIC,[30],12.5 µM
same,MIC,[31],12.5 µM
same,MIC,[32],≥ 50 µM
same,MIC,[33],20 µM and 12.5 µM
CC[C@H](C)[C@H](NC(=O)[C@H](Cc1ccccc1)NC(=O)[C@H](Cc1cnc[nH]1)NC(=O)[C@H](CCCCN)NC(=O)[C@@H](NC(=O)[C@H](Cc1ccccc1)NC(=O)[C@@H]1CCCN1C(=O)[C@H](Cc1ccc(O)cc1)NC(=O)[C@@H]1CCCN1C(=O)[C@H](Cc1ccccc1)NC(=O)[C@H](Cc1cnc[nH]1)NC(=O)[C@H](CC(C)C)NC(=O)[C@H](Cc1cnc[nH]1)NC(=O)[C@H](Cc1ccccc1)NC(=O)[C@H](Cc1cnc[nH]1)NC(=O)[C@@H](N)Cc1ccccc1)[C@@H](C)CC)C(=O)N[C@@H](Cc1cnc[nH]1)C(=O)N[C@@H](CCCN=C(N)N)C(=O)N[C@@H](Cc1ccccc1)C(N)=O [FHFHLHFPYPFIKHFIHRF],MIC,[34],≥ 97.4 µM
same,MIC,[35],> 195 µM
same,MIC,[36],24.3 µM
same,MIC,[37],24.3 µM
same,MIC,[38],≥ 48.7 µM
same,MIC,[39],12.5 µM
same,MIC,[40],≥ 48.7 µM
CC[C@H](C)[C@H](NC(=O)[C@H](CCCCN)NC(=O)[C@H](CCCCN)NC(=O)[C@H](CC(C)C)NC(=O)[C@H](CCCCN)NC(=O)[C@H](CCC(=O)O)NC(=O)[C@H](CCCCN)NC(=O)[C@@H](NC(=O)[C@@H](N)CCCCN)[C@@H](C)CC)C(=O)NCC(=O)N[C@@H](CCC(N)=O)C(=O)N[C@@H](CCCCN)C(=O)N[C@H](C(=O)N[C@@H](CCC(N)=O)C(=O)NCC(=O)O)[C@@H](C)CC [KIKEKLKKIGQKIQG],MIC,[41],≥ 143 µM
same,MIC,[42],≥ 143 µM
same,MIC,[43],≥ 143 µM
CC[C@H](C)[C@H](NC(=O)[C@H](CCCCN)NC(=O)[C@H](CCCCN)NC(=O)[C@H](CO)NC(=O)[C@@H](NC(=O)CNC(=O)[C@H](CCCN=C(N)N)NC(=O)[C@H](CC(C)C)NC(=O)[C@@H](NC(=O)[C@@H](N)CCCCN)[C@@H](C)CC)C(C)C)C(=O)N[C@@H](CCSC)C(=O)N[C@@H](CCCN=C(N)N)C(=O)N[C@@H](CCCN=C(N)N)C(=O)N[C@H](C(=O)N[C@@H](CO)C(=O)N[C@@H](CCCCN)C(=O)N[C@@H](CC(=O)O)C(=O)N[C@H](C(=O)N[C@@H](CC(C)C)C(=O)N[C@H](C(=O)NCC(=O)N[C@@H](CCCCN)C(=O)N[C@@H](CCCCN)C(N)=O)[C@@H](C)O)[C@@H](C)CC)[C@@H](C)CC [KILRGVSKKIMRRISKDILTGKK],MIC,[44],3 µM
same,MIC,[45],0.375 µM
same,MIC,[46],≥ 48 µM
same,MIC,[47],≥ 95.9 µM
same,MIC,[35],24 µM and 48 µM
same,MIC,[48],5.99 µM and 4.68 µM
same,MIC,[49],5.99 µM
same,MIC,[50],> 95.9 µM
same,MIC,[33],5.99 µM
same,MIC,[51],1.5 µM
